This passage reports IC50, AC50 and EC50 results from ChEMBL document CHEMBL1201862, “PubChem BioAssay data set” (2004).

The target of assay [1] is Ephrin type-A receptor 4 (Mus musculus, UniProt Q03137). Kind of assay: inhibitors of EphA4 binding to KYL peptide, primary screen, biochemical, colorimetric, mouse EphA4 (AID 689). Type of assay: functional.
Assay [2] addresses T1, Hepatocyte nuclear factor 4-alpha (Homo sapiens, UniProt P41235).
T1 sequence (P41235 whole entry): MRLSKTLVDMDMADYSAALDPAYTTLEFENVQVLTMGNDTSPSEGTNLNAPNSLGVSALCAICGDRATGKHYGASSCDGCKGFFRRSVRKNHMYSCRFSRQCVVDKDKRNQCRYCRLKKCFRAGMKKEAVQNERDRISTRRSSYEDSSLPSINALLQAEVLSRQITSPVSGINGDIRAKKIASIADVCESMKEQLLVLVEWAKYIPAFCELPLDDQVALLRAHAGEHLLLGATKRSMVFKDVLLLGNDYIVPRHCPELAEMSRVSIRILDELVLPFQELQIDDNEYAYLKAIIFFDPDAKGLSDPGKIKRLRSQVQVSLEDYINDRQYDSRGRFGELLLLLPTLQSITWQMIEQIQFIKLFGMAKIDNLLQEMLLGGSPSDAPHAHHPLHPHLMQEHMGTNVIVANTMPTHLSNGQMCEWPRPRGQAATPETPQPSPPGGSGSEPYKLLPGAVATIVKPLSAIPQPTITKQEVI
Type of assay: functional, cell-based.

Assay [3] can be described thus: Luminescence Cell-Based Dose Retest to Confirm Inhibitors of Cancer Stem Cells. [Related pubchem assays (depositor defined):AID2717, AID2721]. The settings on record: Homo sapiens. The class given is functional, Homo sapiens.
The target of assay [4] is Voltage-gated inwardly rectifying potassium channel KCNH2 (Homo sapiens, UniProt Q12809). Kind of assay: hERG protection from proarrhythmic block, potency, dose response, cell-based, thallium flux (AID 2121). The class given is ADME. For orientation: hERG is a cardiac potassium channel; its block is linked to QT prolongation.
Voltage-gated inwardly rectifying potassium channel KCNH2, sequence (Q12809 whole entry): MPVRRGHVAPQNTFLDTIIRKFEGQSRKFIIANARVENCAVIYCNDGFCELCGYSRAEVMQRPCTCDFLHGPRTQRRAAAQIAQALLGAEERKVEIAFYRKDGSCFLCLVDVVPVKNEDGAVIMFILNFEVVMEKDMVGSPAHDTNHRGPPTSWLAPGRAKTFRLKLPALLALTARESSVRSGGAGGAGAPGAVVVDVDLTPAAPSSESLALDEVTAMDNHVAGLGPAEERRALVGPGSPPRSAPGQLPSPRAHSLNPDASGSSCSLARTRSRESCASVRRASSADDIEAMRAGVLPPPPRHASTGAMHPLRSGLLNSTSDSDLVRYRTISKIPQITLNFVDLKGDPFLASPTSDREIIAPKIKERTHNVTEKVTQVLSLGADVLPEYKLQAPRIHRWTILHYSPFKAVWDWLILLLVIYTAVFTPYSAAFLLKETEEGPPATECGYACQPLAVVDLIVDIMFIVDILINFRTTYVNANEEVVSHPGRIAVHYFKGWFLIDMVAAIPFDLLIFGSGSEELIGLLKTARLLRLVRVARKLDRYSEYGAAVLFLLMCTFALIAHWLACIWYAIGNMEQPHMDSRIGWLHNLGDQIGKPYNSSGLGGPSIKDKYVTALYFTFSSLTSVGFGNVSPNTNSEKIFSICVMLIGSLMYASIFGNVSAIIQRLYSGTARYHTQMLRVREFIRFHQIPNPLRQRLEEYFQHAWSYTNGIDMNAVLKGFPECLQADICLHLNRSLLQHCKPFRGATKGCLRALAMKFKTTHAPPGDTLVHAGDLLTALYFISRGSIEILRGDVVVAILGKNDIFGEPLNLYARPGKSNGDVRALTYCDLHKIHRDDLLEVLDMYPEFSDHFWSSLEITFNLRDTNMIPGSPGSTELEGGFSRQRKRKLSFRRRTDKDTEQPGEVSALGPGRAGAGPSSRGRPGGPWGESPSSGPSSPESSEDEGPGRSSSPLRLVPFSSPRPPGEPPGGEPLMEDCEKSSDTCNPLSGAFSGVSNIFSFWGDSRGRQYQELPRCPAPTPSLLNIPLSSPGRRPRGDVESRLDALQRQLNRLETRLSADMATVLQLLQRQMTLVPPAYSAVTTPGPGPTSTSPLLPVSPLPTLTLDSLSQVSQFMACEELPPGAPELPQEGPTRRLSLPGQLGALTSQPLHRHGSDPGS
Assay [5] deals with Cytochrome P450 3A4 (Homo sapiens, UniProt P08684).
Cytochrome P450 3A4, sequence (P08684 whole entry): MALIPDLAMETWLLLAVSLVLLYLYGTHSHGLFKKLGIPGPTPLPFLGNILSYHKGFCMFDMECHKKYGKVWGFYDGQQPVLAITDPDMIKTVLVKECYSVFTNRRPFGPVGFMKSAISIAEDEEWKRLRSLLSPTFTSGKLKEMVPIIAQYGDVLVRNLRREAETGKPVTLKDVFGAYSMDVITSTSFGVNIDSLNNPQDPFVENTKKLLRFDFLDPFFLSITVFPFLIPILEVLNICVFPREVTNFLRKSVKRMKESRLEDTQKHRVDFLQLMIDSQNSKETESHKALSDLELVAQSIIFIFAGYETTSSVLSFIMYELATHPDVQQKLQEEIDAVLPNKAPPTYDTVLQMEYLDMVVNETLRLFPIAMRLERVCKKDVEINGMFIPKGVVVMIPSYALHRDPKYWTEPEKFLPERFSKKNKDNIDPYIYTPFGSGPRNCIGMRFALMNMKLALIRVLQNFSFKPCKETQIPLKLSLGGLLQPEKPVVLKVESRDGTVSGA
Assay [6] addresses T2, Histone-lysine N-methyltransferase NSD2 (Homo sapiens, UniProt O96028).
T2 sequence (O96028 whole entry): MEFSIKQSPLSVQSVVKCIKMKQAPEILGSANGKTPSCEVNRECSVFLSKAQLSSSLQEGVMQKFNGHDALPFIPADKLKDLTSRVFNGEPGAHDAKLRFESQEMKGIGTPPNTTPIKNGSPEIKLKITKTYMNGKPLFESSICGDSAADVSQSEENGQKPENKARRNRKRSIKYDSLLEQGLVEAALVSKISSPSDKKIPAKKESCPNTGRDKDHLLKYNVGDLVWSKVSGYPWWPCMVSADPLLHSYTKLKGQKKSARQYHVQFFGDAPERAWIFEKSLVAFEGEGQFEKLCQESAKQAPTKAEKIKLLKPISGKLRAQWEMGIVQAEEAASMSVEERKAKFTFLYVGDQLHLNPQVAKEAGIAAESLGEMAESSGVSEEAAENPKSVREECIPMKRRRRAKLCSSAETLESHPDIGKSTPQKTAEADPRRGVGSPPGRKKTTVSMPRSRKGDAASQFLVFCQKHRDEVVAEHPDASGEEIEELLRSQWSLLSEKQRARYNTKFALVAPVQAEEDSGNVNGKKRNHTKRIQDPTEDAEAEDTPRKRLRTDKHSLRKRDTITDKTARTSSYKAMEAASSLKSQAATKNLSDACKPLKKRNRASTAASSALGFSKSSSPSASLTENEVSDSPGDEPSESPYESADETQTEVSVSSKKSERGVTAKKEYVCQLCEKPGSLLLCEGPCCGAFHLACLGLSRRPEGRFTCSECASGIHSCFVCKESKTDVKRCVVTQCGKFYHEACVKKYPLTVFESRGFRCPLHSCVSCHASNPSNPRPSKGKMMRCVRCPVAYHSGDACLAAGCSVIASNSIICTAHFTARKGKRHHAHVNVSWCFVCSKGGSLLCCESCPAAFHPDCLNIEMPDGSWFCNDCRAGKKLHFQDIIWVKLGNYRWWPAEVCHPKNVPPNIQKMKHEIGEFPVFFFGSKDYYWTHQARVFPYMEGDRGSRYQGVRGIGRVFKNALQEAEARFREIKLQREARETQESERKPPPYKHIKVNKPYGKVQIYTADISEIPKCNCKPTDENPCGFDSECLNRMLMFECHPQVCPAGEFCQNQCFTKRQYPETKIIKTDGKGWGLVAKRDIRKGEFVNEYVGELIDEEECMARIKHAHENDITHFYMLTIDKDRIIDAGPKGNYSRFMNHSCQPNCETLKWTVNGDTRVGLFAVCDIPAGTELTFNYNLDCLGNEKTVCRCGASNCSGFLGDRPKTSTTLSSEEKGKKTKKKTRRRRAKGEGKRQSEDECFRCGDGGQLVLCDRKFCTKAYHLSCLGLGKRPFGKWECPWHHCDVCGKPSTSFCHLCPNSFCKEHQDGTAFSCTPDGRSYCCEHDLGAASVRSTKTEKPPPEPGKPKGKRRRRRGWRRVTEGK
The class given is biochemical.

Assay [7] is described as follows: cells.
A short description of assay [8]: inhibitors of intracellular T. cruzi replication, confirmation, NIH3T3 host cells, beta-gal luminescence (AID 2044).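 Further: intracellular parasites grown in NIH/3T3 mouse fibroblasts as host cells; luminescent beta-galactosidase reporter signal from transgenic T. cruzi replicating inside host cells; inhibitors lower the luminescence signal.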 Type of assay: functional, cell-based.
The nature of assay [9]: cytotoxicity toward NIH3T3 fibroblasts, dose response, counter-screen, cell-based, ATP luminescence, mouse fibroblasts (AID 2010).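 Further: cells exposed to compound for about 90 hours before reading.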 The class given is functional. Background: A counterscreen serves to expose hits that act by an unwanted route or on another target.
For assay [10], the target named is T3, Estrogen receptor (Homo sapiens, UniProt P03372).
T3 sequence (P03372 whole entry): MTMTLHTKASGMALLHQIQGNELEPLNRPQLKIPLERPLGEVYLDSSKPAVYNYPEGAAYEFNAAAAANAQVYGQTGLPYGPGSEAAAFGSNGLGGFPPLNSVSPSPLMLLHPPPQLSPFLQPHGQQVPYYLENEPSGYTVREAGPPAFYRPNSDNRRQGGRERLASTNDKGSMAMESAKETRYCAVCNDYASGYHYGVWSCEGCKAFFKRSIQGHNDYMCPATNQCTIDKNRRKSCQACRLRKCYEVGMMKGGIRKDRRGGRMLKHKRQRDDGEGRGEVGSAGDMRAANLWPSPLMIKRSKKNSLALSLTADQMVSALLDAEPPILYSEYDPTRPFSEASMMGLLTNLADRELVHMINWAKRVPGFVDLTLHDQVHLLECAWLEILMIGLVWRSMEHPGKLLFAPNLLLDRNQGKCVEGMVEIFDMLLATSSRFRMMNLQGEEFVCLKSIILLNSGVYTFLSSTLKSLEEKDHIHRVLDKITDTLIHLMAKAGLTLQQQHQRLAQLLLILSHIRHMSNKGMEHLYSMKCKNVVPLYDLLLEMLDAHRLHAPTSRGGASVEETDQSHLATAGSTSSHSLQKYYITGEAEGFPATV

In assay [11] the target is Estrogen receptor beta (Homo sapiens, UniProt Q92731).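 Further: recombinant ER-beta bound to coactivator SRC1 peptide in presence of estradiol agonist; inhibitors block coactivator peptide binding and lower the FRET signal.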
Estrogen receptor beta, sequence (Q92731 whole entry): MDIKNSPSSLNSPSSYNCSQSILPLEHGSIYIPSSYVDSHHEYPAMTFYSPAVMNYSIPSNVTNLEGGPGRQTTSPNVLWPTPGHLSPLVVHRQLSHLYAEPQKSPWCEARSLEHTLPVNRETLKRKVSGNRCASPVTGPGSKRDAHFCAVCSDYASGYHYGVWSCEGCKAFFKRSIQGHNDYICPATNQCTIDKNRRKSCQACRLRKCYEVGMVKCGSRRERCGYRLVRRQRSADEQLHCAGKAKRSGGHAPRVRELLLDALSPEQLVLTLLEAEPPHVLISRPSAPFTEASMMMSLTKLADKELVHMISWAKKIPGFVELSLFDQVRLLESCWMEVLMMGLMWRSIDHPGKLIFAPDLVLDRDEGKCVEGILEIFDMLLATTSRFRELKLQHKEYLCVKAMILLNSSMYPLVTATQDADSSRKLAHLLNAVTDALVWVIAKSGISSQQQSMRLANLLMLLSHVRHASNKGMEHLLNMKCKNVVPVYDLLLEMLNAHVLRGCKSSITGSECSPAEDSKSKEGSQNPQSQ
The target of assay [12] is T4, High affinity choline transporter 1 (Homo sapiens, UniProt Q9GZV3).
T4 sequence (Q9GZV3 whole entry): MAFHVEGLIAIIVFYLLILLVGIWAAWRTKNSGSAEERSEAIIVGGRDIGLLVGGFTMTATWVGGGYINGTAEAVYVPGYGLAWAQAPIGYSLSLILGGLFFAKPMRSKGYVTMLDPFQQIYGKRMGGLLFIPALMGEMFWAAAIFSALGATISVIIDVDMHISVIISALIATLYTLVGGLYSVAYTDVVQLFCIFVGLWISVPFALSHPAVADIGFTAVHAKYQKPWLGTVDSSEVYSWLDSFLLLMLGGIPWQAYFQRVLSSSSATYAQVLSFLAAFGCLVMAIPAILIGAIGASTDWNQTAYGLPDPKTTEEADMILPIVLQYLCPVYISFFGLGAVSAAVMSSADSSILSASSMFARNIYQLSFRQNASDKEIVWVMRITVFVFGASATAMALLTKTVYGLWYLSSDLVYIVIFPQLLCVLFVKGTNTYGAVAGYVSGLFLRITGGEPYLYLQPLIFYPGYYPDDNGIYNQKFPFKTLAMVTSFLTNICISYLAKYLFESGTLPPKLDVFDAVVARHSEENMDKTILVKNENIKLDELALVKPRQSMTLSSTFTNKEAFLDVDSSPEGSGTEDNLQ
Description: CHT inhibitors, dose response, cell-based, 5-point CRC, membrane potential dye (AID 504840). The class given is functional.

The target of assay [13] is T5, Calpain-2 catalytic subunit (Sus scrofa, UniProt P43367).
T5 sequence (P43367 whole entry): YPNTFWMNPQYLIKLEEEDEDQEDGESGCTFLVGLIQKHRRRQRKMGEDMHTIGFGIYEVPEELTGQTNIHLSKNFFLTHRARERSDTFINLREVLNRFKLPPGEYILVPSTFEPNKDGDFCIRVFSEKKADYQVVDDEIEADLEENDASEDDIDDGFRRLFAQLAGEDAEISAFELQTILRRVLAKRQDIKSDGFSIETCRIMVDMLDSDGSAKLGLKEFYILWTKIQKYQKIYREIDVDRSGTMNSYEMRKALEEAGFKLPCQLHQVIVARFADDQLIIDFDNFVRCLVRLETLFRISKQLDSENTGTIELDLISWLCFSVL
Description: pig calpain II inhibitor potency, dose response, biochemical, fluorogenic peptide substrate (AID 1420). Type of assay: functional.

Assay [14] concerns the target T6, Protein skinhead-1 (Caenorhabditis elegans, UniProt P34707).
T6 sequence (P34707 whole entry): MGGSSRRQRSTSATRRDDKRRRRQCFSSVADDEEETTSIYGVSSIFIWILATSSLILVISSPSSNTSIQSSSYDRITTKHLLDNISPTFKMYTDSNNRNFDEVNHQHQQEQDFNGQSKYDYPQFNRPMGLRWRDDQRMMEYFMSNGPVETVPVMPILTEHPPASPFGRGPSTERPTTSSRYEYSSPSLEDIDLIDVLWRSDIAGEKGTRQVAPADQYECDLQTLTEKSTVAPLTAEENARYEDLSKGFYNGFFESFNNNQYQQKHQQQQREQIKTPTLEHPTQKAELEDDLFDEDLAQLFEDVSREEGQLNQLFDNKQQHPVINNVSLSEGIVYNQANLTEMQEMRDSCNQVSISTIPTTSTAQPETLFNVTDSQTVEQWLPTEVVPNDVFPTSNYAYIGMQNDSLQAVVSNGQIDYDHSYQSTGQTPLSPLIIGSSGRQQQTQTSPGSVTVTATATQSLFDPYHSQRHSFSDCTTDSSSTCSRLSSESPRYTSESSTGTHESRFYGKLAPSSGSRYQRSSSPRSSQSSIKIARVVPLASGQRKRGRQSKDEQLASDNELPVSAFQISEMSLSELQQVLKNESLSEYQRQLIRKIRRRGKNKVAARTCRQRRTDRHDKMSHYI
Type of assay: functional.

Assay [15] concerns the target Nonstructural protein 1 (Influenza A virus, UniProt Q194T2). Type of assay: functional, Influenza A virus (A/California/07/2009(H1N1)).

The source made the active and inactive calls. A value given as a limit tells only on which side of the number the result lay.

Ephrin type-A receptor 4, sequence (Q03137 whole entry): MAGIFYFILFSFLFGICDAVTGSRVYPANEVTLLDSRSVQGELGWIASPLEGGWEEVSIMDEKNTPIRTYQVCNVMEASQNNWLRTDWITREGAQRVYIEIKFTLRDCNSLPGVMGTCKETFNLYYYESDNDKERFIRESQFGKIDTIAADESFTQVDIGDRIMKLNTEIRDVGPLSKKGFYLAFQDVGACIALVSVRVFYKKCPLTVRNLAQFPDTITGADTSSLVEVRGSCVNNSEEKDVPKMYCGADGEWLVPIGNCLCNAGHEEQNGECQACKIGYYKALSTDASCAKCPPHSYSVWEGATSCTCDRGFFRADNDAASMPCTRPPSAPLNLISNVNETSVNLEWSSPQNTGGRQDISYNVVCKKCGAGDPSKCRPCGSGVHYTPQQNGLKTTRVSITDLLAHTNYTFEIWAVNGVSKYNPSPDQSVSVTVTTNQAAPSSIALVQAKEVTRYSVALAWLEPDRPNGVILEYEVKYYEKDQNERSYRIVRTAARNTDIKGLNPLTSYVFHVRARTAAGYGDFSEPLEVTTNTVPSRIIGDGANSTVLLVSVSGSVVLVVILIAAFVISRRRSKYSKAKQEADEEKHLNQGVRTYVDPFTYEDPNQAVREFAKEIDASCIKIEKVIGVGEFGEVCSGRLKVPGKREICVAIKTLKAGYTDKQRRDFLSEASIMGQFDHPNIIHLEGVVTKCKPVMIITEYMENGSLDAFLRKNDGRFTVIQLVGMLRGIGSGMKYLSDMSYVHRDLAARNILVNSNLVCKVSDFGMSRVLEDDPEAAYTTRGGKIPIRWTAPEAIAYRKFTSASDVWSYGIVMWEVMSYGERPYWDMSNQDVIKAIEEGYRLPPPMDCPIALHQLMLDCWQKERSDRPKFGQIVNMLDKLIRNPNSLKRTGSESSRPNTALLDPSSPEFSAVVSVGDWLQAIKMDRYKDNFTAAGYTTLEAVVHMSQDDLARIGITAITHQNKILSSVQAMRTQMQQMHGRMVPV
Nonstructural protein 1, sequence (Q194T2 whole entry): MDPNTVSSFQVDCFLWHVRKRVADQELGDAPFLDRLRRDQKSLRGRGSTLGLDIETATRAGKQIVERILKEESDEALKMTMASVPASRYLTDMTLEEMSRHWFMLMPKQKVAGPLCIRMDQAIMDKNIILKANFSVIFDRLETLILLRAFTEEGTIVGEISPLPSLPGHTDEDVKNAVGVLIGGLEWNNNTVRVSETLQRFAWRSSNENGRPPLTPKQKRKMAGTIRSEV

With `CCOC(=O)c1c(NC(C)=O)sc2c1CCC(C=O)=C2Sc1ccccc1`, the values for the IC50 in assay [1] and in [2] were 2.26 µM (active) and 28.1 µM (inactive), respectively. The AC50 (commonly the midpoint of the concentration-response curve, whichever way the signal moves) in [3] is 3.85 µM (active).

Regarding `O=C(NC(=S)Nc1cccc(Cl)c1N1CCCCC1)c1ccco1`, the AC50 is 4.12 µM (active) in assay [3] and 15.8 µM (inconclusive) in assay [5]. The EC50 (in general, the concentration at which the effect is half-maximal) in [4] was 0.46 µM (active).

`CCN(CC)CCCN(Cc1cc2cc3c(cc2nc1O)OCCO3)C(=O)Nc1ccccc1`: in assay [6], the AC50 was > 20 µM (inactive). Besides, the IC50 (commonly the concentration needed to halve the response being measured) in [1] is 13.3 µM (active).

For `CN(C)CCN(C(=O)c1cc(Cl)sc1Cl)c1nc2ccc(F)cc2s1`, the concentration for a half-maximal effect (EC50) is 0.211 µM (active) in assay [7], < 0.1 µM (active) in assay [8] and > 60 µM (not active) in assay [9].

As to `Cc1sc2ncnc(NCc3ccco3)c2c1C`, the values for the IC50 in [10], in assay [11] and in assay [12] were 35.3 µM (not active), 29.4 µM (active) and 13.2 µM (active), respectively.

For `Cc1ccc(C(C#N)c2ccc3c(C(F)(F)F)cc(C(F)(F)F)nc3n2)cc1` (centres undefined), the figures for the IC50 in assay [13], in [14] and in assay [15] were > 50 µM (not active), > 100 µM (inactive) and 24.4 µM (active), respectively. For the same molecule, the AC50 in [3] was 1.78 µM (active). Also, the EC50 in assay [4] was 6 µM (active).
